Assay results reported in patent US20070207952A1, “Long Acting Biologically Active Conjugates” (priority 2003, published 2007).
Where a SMILES comes first, the peptide text is derived from it. Where no end group is shown, it is not given here. [ ]: non-standard residue; d: D form. The star is where a group is joined. Sta = CC(C)C[C@H](N)[C@@H](O)CC(=O)O; Nle = CCCC[C@H](N)C(=O)O; Cbz = O=C(OCc1ccccc1)*; Boc = CC(C)(C)OC(=O)*

What was measured:
Human plasma renin = target: T1, Human plasma renin (Homo sapiens, UniProt P00797); conditions: cited from earlier work; for IC50: literature values
T1 construct: plasma renin
T1 sequence (P00797 67-406): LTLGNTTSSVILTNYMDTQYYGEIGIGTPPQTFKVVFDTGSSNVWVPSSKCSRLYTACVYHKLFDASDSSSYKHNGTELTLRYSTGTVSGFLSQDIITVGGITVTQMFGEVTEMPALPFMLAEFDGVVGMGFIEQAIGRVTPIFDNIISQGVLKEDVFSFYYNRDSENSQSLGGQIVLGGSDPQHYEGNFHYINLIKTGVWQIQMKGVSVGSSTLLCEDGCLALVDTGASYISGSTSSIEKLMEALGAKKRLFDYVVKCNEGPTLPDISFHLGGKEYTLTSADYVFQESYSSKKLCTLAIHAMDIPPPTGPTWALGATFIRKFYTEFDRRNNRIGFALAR

HIV-1 IIIB = experiment: Antiviral cytotoxicity (MTT) assay with MT4 cells, HIV-1 IIIB; assay type: cell-based; conditions: MT-4 cells, 5 days, average of 2 or 3 experiments
HIV NL4-3 = experiment: Antiviral cytotoxicity (MTT) assay with MT4 cells, HIV NL4-3; assay type: cell-based, HIV-1; conditions: MT-4 cells, 5 days, average of 2 or 3 experiments
Experimental: Antiviral potency of the peptides was analyzed against HIV-1 HXB2 or NLA-3 strains using a cytotoxicity assay with MT4 cells as previously described (ref 1-3) with minor modifications. MT-4 cells (1.5×10^4/ml) were exposed to 200 50% tissue culture infective doses (TCID50) of viruses in the presence of various concentrations of test compound in 96 well microtiter plates and incubated at 37° C. for 5 days. Cytotoxicity of HIV was measured by the addition of 3-(4,5-dimethylthiazol-2-yl)-2,5-diphenytetrazolium bromide (MMI) solution to each well to a final concentration of 0.75 mg/ml, and incubation for 1 hour a 37° C. After incubation, cells were dissolved in isopropanoyrriton-X 100/HCl (1000:50:25) solution. Absorbance was monitored in a microplate reader (Spectramax, Molecular Devices) at 540 rm and 690 nm. MT-4 cells were obtained from the AIDS Research and Reference Reagent Program (ARRRP, Division of AIDS, NIAID, NIH: MT-4 from Dr. D. Richman). Cells were propagated in RPMI 1640 growth medium supplemented with 10% fetal bovine serum, 50U of penicillin and 50 μg of streptomycin per ml ([Ivitrogen, Carlsbad Calif.).

Molecule	IC50 (Human plasma renin) [nM]	further results
Boc-FH[Sta]A[Sta]-OMe	27	–
Boc-Phe-His-ACHPA---Leu-AMB	1	–
CCCC[C@H](NC(=O)[C@H](Cc1c[nH]c2ccccc12)NC(C)=O)C(=O)N[C@@H](CCC(=O)O)C(=O)N[C@@H](Cc1c[nH]c2ccccc12)C(=O)N[C@@H](CC(=O)O)C(=O)N[C@@H](CCCNC(=N)N)C(=O)N[C@@H](CCCCN)C(=O)N[C@H](C(=O)N[C@@H](CCC(=O)O)C(=O)N[C@@H](CCC(=O)O)C(=O)N[C@@H](Cc1ccc(O)cc1)C(=O)N[C@H](C(=O)N[C@@H](CCCCN)C(=O)N[C@@H](CCCCN)C(=O)N[C@H](C(=O)N[C@@H](CCC(=O)O)C(=O)N[C@@H](CCC(=O)O)C(=O)N[C@@H](CC(C)C)C(=O)N[C@H](C(=O)N[C@@H](CCCCN)C(=O)N[C@@H](CCCCN)C(=O)N[C@@H](CO)C(=O)N[C@@H](CCC(N)=O)C(=O)N[C@@H](CCC(=O)O)C(=O)N[C@@H](CCC(N)=O)C(=O)N[C@@H](CCC(N)=O)C(=O)N[C@@H](CCC(=O)O)C(=O)N[C@@H](CCCCN)C(=O)N[C@@H](CC(N)=O)C(=O)N[C@@H](CCC(=O)O)C(=O)N[C@@H](CCCCN)C(=O)N[C@@H](CCC(=O)O)C(=O)N[C@@H](CC(C)C)C(=O)N[C@@H](CCCCN)C(N)=O)[C@@H](C)CC)[C@@H](C)CC)[C@@H](C)O)[C@@H](C)CC [peptide 9, Ac-WXEWDRKIEEYTKKIEELIKKSQEQQEKNEKELK-NH2] (Ac-W[Nle]EWDRKIEEYTKKIEELIKKSQEQQEKNEKELK-NH2)	–	IC50 (HIV-1 IIIB): 1.7 nM; IC50 (HIV NL4-3): 0.9 nM
Pro-His-Pro-Phe-His-Leu(CH2NH)Val-Ile-His-Lys	10	–
Boc-Pro-Phe-His-Sta---Ile-AMP	4.1	–
CCCC[C@H](NC(=O)[C@H](Cc1c[nH]c2ccccc12)NC(C)=O)C(=O)N[C@@H](CCC(=O)O)C(=O)N[C@@H](Cc1c[nH]c2ccccc12)C(=O)N[C@@H](CC(=O)O)C(=O)N[C@@H](CCCNC(=N)N)C(=O)N[C@@H](CCCCN)C(=O)N[C@H](C(=O)N[C@@H](CCC(=O)O)C(=O)N[C@@H](CCC(=O)O)C(=O)N[C@@H](Cc1ccc(O)cc1)C(=O)N[C@H](C(=O)N[C@@H](CCCCN)C(=O)N[C@@H](CCCCN)C(=O)N[C@H](C(=O)N[C@@H](CCC(=O)O)C(=O)N[C@@H](CCC(=O)O)C(=O)N[C@@H](CC(C)C)C(=O)N[C@H](C(=O)N[C@@H](CCCCN)C(=O)N[C@@H](CCCCN)C(=O)N[C@@H](C)C(=O)N[C@@H](CCC(N)=O)C(=O)N[C@@H](CCC(=O)O)C(=O)N[C@@H](CCC(N)=O)C(=O)N[C@@H](CCC(N)=O)C(=O)N[C@@H](CCC(=O)O)C(=O)N[C@@H](CCCCN)C(=O)N[C@@H](CC(N)=O)C(=O)N[C@@H](CCC(=O)O)C(=O)N[C@@H](CCCCN)C(=O)N[C@@H](CCC(=O)O)C(=O)N[C@@H](CC(C)C)C(=O)N[C@@H](CCCCN)C(N)=O)[C@@H](C)CC)[C@@H](C)CC)[C@@H](C)O)[C@@H](C)CC [peptide 11, Ac-WXEWDRKIEEYTKKIEELIKKAQEQQEKNEKELK-NH2] (Ac-W[Nle]EWDRKIEEYTKKIEELIKKAQEQQEKNEKELK-NH2)	–	IC50 (HIV-1 IIIB): 2.1 nM; IC50 (HIV NL4-3): 1.1 nM
CCCC[C@H](NC(=O)[C@H](Cc1c[nH]c2ccccc12)NC(C)=O)C(=O)N[C@@H](CCC(=O)O)C(=O)N[C@@H](Cc1c[nH]c2ccccc12)C(=O)N[C@@H](CC(=O)O)C(=O)N[C@@H](CCCNC(=N)N)C(=O)N[C@@H](CCC(=O)O)C(=O)N[C@H](C(=O)N[C@@H](CC(N)=O)C(=O)N[C@@H](CC(N)=O)C(=O)N[C@@H](Cc1ccc(O)cc1)C(=O)N[C@H](C(=O)N[C@@H](CO)C(=O)N[C@@H](CC(C)C)C(=O)N[C@H](C(=O)N[C@@H](Cc1c[nH]cn1)C(=O)N[C@@H](CO)C(=O)N[C@@H](CCC(N)=O)C(=O)N[C@H](C(=O)N[C@@H](CCC(=O)O)C(=O)N[C@@H](CCC(=O)O)C(=O)N[C@@H](CO)C(=O)N[C@@H](CCC(N)=O)C(=O)N[C@@H](CC(N)=O)C(=O)N[C@@H](CCC(N)=O)C(=O)N[C@@H](CCC(N)=O)C(=O)N[C@@H](CCC(=O)O)C(=O)N[C@@H](CCCCN)C(=O)N[C@@H](CC(N)=O)C(=O)N[C@@H](CCC(=O)O)C(=O)N[C@@H](CCC(N)=O)C(=O)N[C@@H](CCC(=O)O)C(=O)N[C@@H](CC(C)C)C(=O)N[C@@H](CC(C)C)C(N)=O)[C@@H](C)CC)[C@@H](C)CC)[C@@H](C)O)[C@@H](C)CC [peptide 5, Ac-WXEWDREINNYTSLIHSQIEESQNQQEKNEQELL-NH2] (Ac-W[Nle]EWDREINNYTSLIHSQIEESQNQQEKNEQELL-NH2)	–	IC50 (HIV-1 IIIB): 6.6 nM; IC50 (HIV NL4-3): 200 nM
CCCC[C@H](NC(=O)[C@H](Cc1c[nH]c2ccccc12)NC(C)=O)C(=O)N[C@@H](CCC(=O)O)C(=O)N[C@@H](Cc1c[nH]c2ccccc12)C(=O)N[C@@H](CC(=O)O)C(=O)N[C@@H](CCCNC(=N)N)C(=O)N[C@@H](CCCCN)C(=O)N[C@H](C(=O)N[C@@H](CCC(=O)O)C(=O)N[C@@H](CCC(=O)O)C(=O)N[C@@H](Cc1ccc(O)cc1)C(=O)N[C@H](C(=O)N[C@@H](CCCCN)C(=O)N[C@@H](CCCCN)C(=O)N[C@H](C(=O)N[C@@H](CCCCN)C(=O)N[C@@H](CCCCN)C(=O)N[C@@H](CC(C)C)C(=O)N[C@H](C(=O)N[C@@H](CCC(=O)O)C(=O)N[C@@H](CCC(=O)O)C(=O)N[C@@H](CO)C(=O)N[C@@H](CCC(N)=O)C(=O)N[C@@H](CCC(=O)O)C(=O)N[C@@H](CC(C)C)C(=O)N[C@@H](CCC(N)=O)C(=O)N[C@@H](CCC(=O)O)C(=O)N[C@@H](CCCCN)C(=O)N[C@@H](CC(N)=O)C(=O)N[C@@H](CCC(=O)O)C(=O)N[C@@H](CCCCN)C(=O)N[C@@H](CCC(=O)O)C(=O)N[C@@H](CC(C)C)C(=O)N[C@@H](CCCCN)C(N)=O)[C@@H](C)CC)[C@@H](C)CC)[C@@H](C)O)[C@@H](C)CC [peptide 7, Ac-WXEWDRKIEEYTKKIKKLIEESQELQEKNEKELK-NH2] (Ac-W[Nle]EWDRKIEEYTKKIKKLIEESQELQEKNEKELK-NH2)	–	IC50 (HIV-1 IIIB): 2.4 nM; IC50 (HIV NL4-3): 1.1 nM
PEC-Phe-His-ACHPA-ILeNHC(CH2OH)2CH3	< 0.01	–
PHPFH[Sta]IH[dK]	26	–
Iva-Phe-Nle-Sta-Ala-Sta	28	–
Ac-WPFH[Sta]I-NH2	16	–
CCCC[C@H](NC(=O)[C@H](Cc1c[nH]c2ccccc12)NC(C)=O)C(=O)N[C@@H](CCC(=O)O)C(=O)N[C@@H](Cc1c[nH]c2ccccc12)C(=O)N[C@@H](CC(=O)O)C(=O)N[C@@H](CCCNC(=N)N)C(=O)N[C@@H](CCCCN)C(=O)N[C@H](C(=O)N[C@@H](CCC(=O)O)C(=O)N[C@@H](CCC(=O)O)C(=O)N[C@@H](Cc1ccc(O)cc1)C(=O)N[C@H](C(=O)N[C@@H](CCCCN)C(=O)N[C@@H](CCCCN)C(=O)N[C@H](C(=O)N[C@@H](CCCCN)C(=O)N[C@@H](CCCCN)C(=O)N[C@@H](CC(C)C)C(=O)N[C@H](C(=O)N[C@@H](CCC(=O)O)C(=O)N[C@@H](CCC(=O)O)C(=O)N[C@@H](CO)C(=O)N[C@@H](CCC(N)=O)C(=O)N[C@@H](CCC(=O)O)C(=O)N[C@@H](CCC(N)=O)C(=O)N[C@@H](CCC(N)=O)C(=O)N[C@@H](CCC(=O)O)C(=O)N[C@@H](CCCCN)C(=O)N[C@@H](CC(N)=O)C(=O)N[C@@H](CCC(=O)O)C(=O)N[C@@H](CCCCN)C(=O)N[C@@H](CCC(=O)O)C(=O)N[C@@H](CC(C)C)C(=O)N[C@@H](CCCCN)C(N)=O)[C@@H](C)CC)[C@@H](C)CC)[C@@H](C)O)[C@@H](C)CC [peptide 6, Ac-WXEWDRKIEEYTKKIKKLIEESQEQQEKNEKELK-NH2] (Ac-W[Nle]EWDRKIEEYTKKIKKLIEESQEQQEKNEKELK-NH2)	–	IC50 (HIV-1 IIIB): 2.4 nM; IC50 (HIV NL4-3): 1.2 nM
Ac-(HCO-Trp)-Pro-Phe-His-Sta---Ile-NH2	0.1	–
Boc-Phe-His-Cha-(CH2NH)Val-NH-2(S)-Me(Bu)	86	–
Boc-Phe-His-Sta---Leu-AMB	9	–
Boc-Phe-His-Sta---Ile-AMP	6	–
Ac-HPFV[Sta]LF-NH2	32	–
Boc-Phe-His-Sta---Leu-NHCH2Ph	26	–
Cbz-RRPFH[Sta]IHK(Boc)-OMe	1	–
PHPFH[Sta]IF-NH2	3	–
Ac-His-Pro-Phe-His-ACHPA---Leu-Phe-NH2	0.5	–
Iva-His-Pro-Phe-His-Sta---Ala-Sta	–	Ki (Human plasma renin; cell marked (Ki)): 1.9 nM
Boc-His-Pro-Phe-His-Leu(CH(OH)CH2)Val-Ile-His-OH	0.7	–
